Measurements from patent US7550469B2, “Heterocyclic amide derivatives and their use as dopamine D3 receptor ligands” (Aventis Pharmaceuticals Inc., priority 2001, dated 2009).
Like-named read-outs stand apart in the source and are kept apart here. Blank lines part the entries; values can stand above or below the molecule they belong to.

Experiments:
[1] = target: Alpha-1 adrenergic receptors from rat brain cortex; experiment: [3H]Prazosin binding to alpha-1 adrenergic receptors from rat brain cortex (Protocol 4)
Excerpt: [^3H]Prazosin Binding to Alpha-1 Adrenergic Receptors from Rat Brain Cortex
Objective: This in vitro assay is designed as a screen to identify compounds displaying a affinity for the a, adrenoceptor subtype in membranes from rat cortex. It measures the ability of the test compounds to displace [^3H]prazosin from the α1 sites.
Membrane Preparation: Rat brain tissue can be obtained from either fresh (male Wistar rats; 200-250 g) or frozen (male Sprague-Dawley 200-250 g from Harlan; cat. #BT-403) stocks. The cortex is dissected, homogenized in 50 vol (wet weight) ice-cold 50 mM Tris buffer (pH 7.7 at 25° C.). The homogenate is centrifuged at 48,000 g for 10 min, the pellet is resuspended in 50 mM Tris buffer and centrifuged a second time. The second pellet (P2) is resuspended to yield a concentration of 115 mg wet weight per 10 ml. […] Membranes should be mixed just before addition to ensure an even suspension. […] This is diluted to a 0.5 mM stock in dH2O. Serial dilutions in Buffer A are made from which 50 μl additions to the plate are made in duplicate in order to achieve the final concentrations desired. Typically, one 96 well plate is used to evaluate 11 compounds at 4 concentrations (10^−6-10^−9 M) in duplicate. Total binding and nonspecific binding are determined in quadruplicate. Usually one standard is run with each assay. • [^3H]Prazosin is made up in Buffer A such that when 50 μl are added per well the final concentration is […] in a final assay volume of 200 μl. The final concentration should be verified by running a sample in a scintillation counter prior to adding the [^3H]prazosin to the 96 well plate. Note: The radioactivity should be prepared just before the additions are made so that it is not allowed to sit on the bench for very long. • Packard GF/B Plate Pretreatment: The filter plates are presoaked for at least 30 min in ice cold Buffer B containing 0.05% polyethyleneimine (200 μl/200 ml) to maximize filtration efficiency and minimize filter blank binding. • Incubation & Filtration: Once buffer, compounds, [^3H]prazosin and membrane have been added (and mixed), the 96 well plates are incubated for 40 min at 37° C. and spaced 3-5 min apart. At 40 min, the plates are filtered using a Tomtec Automated Cell Harvester. Filtration is immediately followed by washes of ice cold Buffer B (total vol. ˜7 ml). • Drying and Counting: Each filter plate is dried under a heat lamp for 15 min. The back of the plate is sealed and 40 μl of Packard microscint fluid are added per well. Using Packard film, each plate is heat sealed prior to being counted in a Packard Topcount Scintillation counter. A program has been written that counts each plate twice sending DPM, CPM and TSIS data to disk and printer. • Analysis of Results: Raw DPM and CPM data are captured on disk and are imported into one of several software packages (Graphpad Prism Ver 2.0, Excel) residing on the LAN. Specific binding is defined as the difference between total binding and the binding in the presence of 10 μM phentolamine. Total binding is less than 10% of the total added ligand. Software using one-site competition curve analysis is employed in the calculation of IC50 and KI (Cheng-Prusoff equation, 1973). The top and bottom of the non-linear regression are held constant at 0% and 100% inhibition. The percent inhibition at each drug concentration is the mean of duplicate determinations.

[2] = target: T1, cloned human dopamine D3 receptors (Homo sapiens, UniProt P35462); experiment: [N-Methyl-3H]Spiroperidol binding to cloned human dopamine D3 receptors (Protocol 1)
T1 construct: expressed in transfected cells; membrane homogenate
T1 sequence (P35462 whole entry): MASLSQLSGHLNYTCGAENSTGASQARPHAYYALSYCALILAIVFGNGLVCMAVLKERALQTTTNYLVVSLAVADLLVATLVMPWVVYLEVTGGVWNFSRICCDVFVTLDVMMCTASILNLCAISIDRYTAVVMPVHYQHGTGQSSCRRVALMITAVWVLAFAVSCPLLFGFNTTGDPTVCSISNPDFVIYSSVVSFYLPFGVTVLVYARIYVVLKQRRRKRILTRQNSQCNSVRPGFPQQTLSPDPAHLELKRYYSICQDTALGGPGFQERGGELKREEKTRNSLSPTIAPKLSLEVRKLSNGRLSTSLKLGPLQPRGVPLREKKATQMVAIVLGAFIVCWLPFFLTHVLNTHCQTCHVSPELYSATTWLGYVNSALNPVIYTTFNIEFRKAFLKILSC
How it was run: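 Radioligand displacement with [N-methyl-3H]spiroperidol used a physiological-salt Tris buffer (0.05 M, pH 7.7; NaCl 120 mM, KCl 5 mM, CaCl2 2 mM, MgCl2 1 mM) and membranes of a high-expressing stable CHO clone carrying human D3. Total ligand concentration came from measured added CPM; 0.1% ascorbic acid was optional for oxidizable compounds.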

[3] = r = rat, piperazines (n = 1) vs homopiperazines (n = 2), read-out: r-α1 Ki
[4] = rat α-1, read-out: rat alpha 1 Ki
[5] = the 23rd table, read-out: D3 Ki
[6] = the 13th table, unit inferred, read-out: D3Ki
[7] = the 15th table, read-out: D3 Ki
[8] = the 21st table, read-out: D3 Ki
[9] = the 14th table, read-out: D3 Ki
[10] = the 18th table, read-out: D3 Ki

Ki [1, 3]: 32.4 nM
Ki [1, 4]: 32.4 nM
SMILES: O=C(NCCCCN1CCN(c2csc3cc(F)ccc23)CC1)c1ccc(C(F)(F)F)cc1 [compound 813374]

Ki [1, 3]: 1.1 nM
Ki [1, 4]: 1.1 nM
SMILES: O=C(NCCCCN1CCN(c2csc3cc(F)ccc23)CC1)c1ccco1 [compound 813371]

Ki [1, 3]: 40.6 nM
SMILES: O=C(NCCCCN1CCN(c2csc3cc(F)ccc23)CC1)c1ccc2ccccc2c1 [compound 813372]

Ki [1, 4]: 15.4 nM
SMILES: O=C(NCCCCN1CCN(c2csc3cc(F)ccc23)CC1)c1sc2ccccc2c1Cl [compound 813377]

Ki [1, 4]: 2 nM
SMILES: O=C(NCCCCN1CCN(c2csc3cc(F)ccc23)CC1)c1ccc(F)cc1F [compound 813920]

Ki [1, 3]: 21.9 nM
SMILES: COc1cccc(C(=O)NCCCCN2CCN(c3csc4cc(F)ccc34)CC2)c1 [compound 813380]

Ki [1, 3]: 4.1 nM
Ki [1, 4]: 4.1 nM
SMILES: COc1ccccc1C(=O)NCCCCN1CCN(c2csc3cc(F)ccc23)CC1 [compound 813368]

Ki [2, 5]: 13.5 nM
SMILES: C[C@H]1CC[C@H](NC[C@@H]2C[C@H]2CN2CCN(c3csc4cc(C(F)(F)F)ccc34)CC2)CC1 [compound 832209]

Ki ([2]; read-out: D3K1): 4.4 nM
SMILES: O=C(NCCCCN1CCN(c2csc3cc(C(F)(F)F)ccc23)CC1)c1ccc(-c2ccccc2)cc1 [compound 815547]

Ki ([2]; Table 2, read-out: D3K1): 37.3 nM
SMILES: COc1ccc(C(=O)NC/C=C\CN2CCN(c3csc4cc(C(F)(F)F)ccc34)CC2)cc1 [compound 827734]

Ki [2, 6]: 94.1 nM
SMILES: C=CCCCCCCC(=O)NCCCCCN1CCC(c2noc3ccsc23)CC1 [compound 816203]

SMILES: O=C(NCCCCN1C2CCC1CC(c1noc3cc(F)ccc13)C2)c1cccs1 (centres unmarked) [compound 816323]
Ki [2, 7]: 832 nM

SMILES: COc1ccccc1C(=O)NCCCCN1C2CCC1CC(c1noc3cc(F)ccc13)C2 (centres unmarked) [compound 816343]
Ki [2, 7]: 344 nM

Ki ([2]; the 24th table, read-out: D3 Ki): 43.3 nM
SMILES: COc1ccc(S(=O)(=O)NCC2CC2CN2CCC(c3noc4ccsc34)CC2)cc1 (centres unmarked) [compound 831464]

Ki [2, 8]: 186 nM
SMILES: C[C@@H]1CN(c2csc3cc(C(F)(F)F)ccc23)C[C@H](C)N1CCCCNC(=O)c1cccc(F)c1 [compound 827044]

Ki ([2]; Table 2, read-out: D3K1): 314 nM
Ki ([2]; read-out: D3K1): 314 nM
Ki [2, 9]: 314 nM
SMILES: O=C(N[C@@H](CO)CCCN1CCN(c2csc3cc(C(F)(F)F)ccc23)CC1)c1cc2ccccc2[nH]1 [compound 815674]

Ki [2, 10]: 46 nM
SMILES: O=C(NCc1sccc1CN1CCN(c2csc3cc(F)ccc23)CC1)c1cccs1 [compound 826295]

Ki [2, 6]: 1.01 nM
SMILES: COc1ccc(C(=O)NCCCCN2CCCN(c3csc4cc(F)ccc34)CC2)cc1 [S981845]

Ki [2, 5]: 41.5 nM
SMILES: COc1ccc(CNCC2CC2CN2CCN(c3csc4cc(C(F)(F)F)ccc34)CC2)cc1 (racemic) [compound 831909]

Ki ([2]; read-out: D3K1): 170 nM
SMILES: O=C(NC[C@@H]1CCCC[C@H]1CN1CCN(c2csc3cc(C(F)(F)F)ccc23)CC1)c1cc2ccccc2[nH]1 [compound 826285]

Ki ([2]; the 22nd table, read-out: D3 Ki): 188 nM
SMILES: Cc1ccccc1C(=O)NCCCCN1CCN(c2nn(C(=O)c3ccccc3C)c3ccsc23)CC1 [compound 825146]

Ki [2, 6]: 2.7 nM
SMILES: O=C(NCCCCN1CCCN(c2csc3cc(F)ccc23)CC1)c1cccs1 [compound 822149]

Ki ([2]; read-out: D3K1): 2.1 nM
Ki [2, 9]: 2.1 nM
SMILES: Cn1c(C(=O)NCCCCCCN2CCN(c3csc4cc(C(F)(F)F)ccc34)CC2)cc2ccccc21 [compound 826739]

Ki [2, 8]: 154 nM
SMILES: C[C@@H]1CN(c2csc3cc(F)ccc23)C[C@H](C)N1CCCCNC(=O)c1cccnc1Cl [compound 826948]

Ki ([2]; Table 2, read-out: D3K1): 173 nM
SMILES: O=C(NC/C=C\CN1CCN(c2csc3cc(C(F)(F)F)ccc23)CC1)C1(c2ccccc2)CC1 [compound 827736]

Ki [2, 10]: 273 nM
SMILES: O=C(NCc1sccc1CN1CCN(c2csc3cc(F)ccc23)CC1)c1cc(-c2ccco2)nc2ccccc12 [compound 826319]
